experiment: Human HepG2 cell viability assay in 384 well format; format: toxicity, cell-based; parameters: dose 125 nL, time 70.5 hour; concentration not given beside the values; conditions: HepG2 cells, read-out: Inhibition

| Structure (SMILES) | cytotoxicity at 70.5 h [%] |
| --- | --- |
| O=C(O)c1ccccc1-c1ccc(CN2CCC(CO)CC2)cn1 | -9.48 |
| COCC1CN(Cc2ccncc2)Cc2nn(C)cc21 (configuration not stated) | 30.7 |
| O=C1OCCN1CC(=O)N1C[C@H]2CC[C@@H]1CN(C(=O)c1ccccc1)C2 | 2.12 |
| CCOC(=O)N1CCC(NC(C)Cc2cc(C)n[nH]2)CC1 (configuration not stated) | -0.223 |
| COc1ccc(-c2noc([C@@H](C)NC(=O)NC(C)(C)C)c2C(=O)O)cc1 | -10.4 |
| CC(=O)c1cn(CCC(=O)NCCC(=O)O)c2ccccc12 | -12.4 |
| Cc1cc2n(n1)CC(CNCc1ccc(-n3cccn3)nc1)CN2 (configuration not stated) | 3.95 |
| CCCNC(=O)c1cnc2n1CCCC2 | -9.22 |
| N#Cc1cc(F)c(NCCCOCC2CCOC2)c(F)c1 (configuration not stated) | 7.98 |
| CCn1c(C)cc(C(=O)N2CCCC(n3nc(C)nc3C)C2)c1C (configuration not stated) | -7.33 |
| Cc1nc(CN2CCN(c3ccc(SC(C)C)nn3)CC2)cs1 | 11.1 |
| CN(c1ncc(C(=O)NCc2ccccc2)c(N)n1)C1CCCCC1 | 18 |
| CSC(C)C(=O)NS(=O)(=O)c1ccc(F)c(C(F)(F)F)c1 (configuration not stated) | 22.2 |
| CN(CCC(F)(F)F)C(=O)c1nc(S(C)(=O)=O)n2ccccc12 | 25.3 |
| CSCc1ccc(CNCCN2CCOCC2)o1 | -12.8 |
| Cc1ncsc1C(=O)NCCn1nc(C2CCNC2)c2cccnc21 (configuration not stated) | -14.3 |
| CCOCCCNC(=O)C(NC(=O)Cc1cccs1)c1ccc(C)cc1 (configuration not stated) | -2.89 |
| Cc1cccc(CN2CCN(C(=O)c3cnc(C)[nH]c3=O)CC2)c1 | 12.7 |
| CN1CC2(CCN(C(=O)c3ccc4c(=O)n(C)cnc4c3)CC2)CC1=O | -6.3 |
| O=C(c1cnccn1)N1CCC2(CC1)C(=O)NCC2c1ccccc1 (configuration not stated) | -6.72 |
| NC(=O)COc1ccc(CNCc2ccc(F)c(F)c2)cc1 | 0.155 |
| CC(C)Nc1ncccc1C(=O)NCc1cnc(N(C)C)n1C | -14.4 |
| Cc1ccn(CC(=O)N2CC[C@@H](c3ccc4ccccc4c3)[C@H](O)C2)n1 | -10.1 |

| Structure (SMILES) | cytotoxicity at 70.5 h [%] |
| --- | --- |
| O=C1CO[C@@H]2CN(Cc3nccs3)C[C@H]2N1Cc1ccncc1 | -11.4 |
| CCc1nc(CN2CCCC(N(C)Cc3cnc(C)s3)C2)no1 (configuration not stated) | -2 |
| COc1ccc(F)cc1S(=O)(=O)N1CCN(CCn2ccnc2)CC1 | -12.2 |
| CCNC(=O)N1CCC(NC(=O)NCCc2cc(F)cc(F)c2)C1 (configuration not stated) | 1.55 |
| CCOCc1nc2c(c(N3CC=CC3)n1)CCN(Cc1ccco1)CC2 | -3.14 |
| CCN(CC)CCNCC1CCOC(C)(C)C1 (configuration not stated) | -5.74 |
| Cc1cc2cc(CNC3CCN(CC(=O)N(C)C)CC3)oc2cc1C | -3.5 |
| Cc1ccc(CN(CCCn2ccnc2)Cc2cccs2)s1 | 18.6 |
| COc1ccc(CN2CCC(c3nnc(-c4scnc4C)o3)CC2)cc1 | -3.83 |
| CC(C)(NCc1cccc(C(N)=O)c1)c1ccc2c(c1)OCO2 | -10 |
| Cc1ccccc1CS(=O)(=O)NCCCN1CCCCC1 | -4.67 |
| CCOc1ccc([C@@H]2N[C@H](c3nccs3)Cc3ccsc32)cc1OC | -7.07 |
| c1ccc(O[C@H]2CC[C@H]3[C@H]2OCCN3Cc2nccs2)nc1 | -9.23 |
| c1cncc(NCCNC2CSCCSC2)c1 | 5.88 |
| O=C(Cc1ccc(CO)cc1)N1CCN(CC2CC2)[C@@H]2CS(=O)(=O)C[C@@H]21 | 2.89 |
| CC(C)COc1ccc(C2SCC(=O)Nc3c2c(=O)[nH]n3C(C)C)cc1 (configuration not stated) | -4.59 |
| CN(CC(=O)Nc1ccon1)S(=O)(=O)c1cc(Cl)ccc1Cl | 23.9 |
| COCCn1cc2c(n1)C(CNCc1ccsc1)OCC2 (configuration not stated) | -14.8 |
| CN(C)c1ccccc1CN1CCC(N2CCCC2=O)CC1 | 17.8 |
| Cc1ccoc1C(=O)N1CC[C@H]2OCC[C@@]2(COCc2ccncc2)C1 | -5.41 |
| Cc1cc(N(C)C)nc(N2CCN(Cc3nccn3C)CC2)n1 | -5.76 |
| Cc1ccc(S(=O)(=O)c2ncccc2CN2CCN(CCO)CC2)cc1 | -30.6 |
| CN(C)CC(=O)N1CCC2(CC1)Cc1ccccc1CN(C)C2=O | 23.3 |

| Structure (SMILES) | cytotoxicity at 70.5 h [%] |
| --- | --- |
| c1ccc2c(c1)CCN(c1nc(-c3ccncc3)nc3c1CCNC3)C2 | 23.9 |
| COC(=O)CN(C(=O)c1ccoc1)c1cccc(F)c1 | -8.55 |
| CCC(NC(=O)NCC(=O)NC(C)C)c1cc(F)ccc1F (configuration not stated) | -3.83 |
| COc1c(CNCc2cccnc2N2CCN(C)CC2)c(C)nn1C | 4 |
| CCc1nc(CNc2ccc(F)c(F)c2)no1 | -7.5 |
| CC(=O)N1CCC(c2nccnc2C)CC1 | -1.76 |
| O=C(c1cccnc1)N1C[C@@H](c2ccccc2)[C@@]2(CCNC2=O)C1 | 7.29 |
| O=C(c1ccco1)N1CC[C@@H]2[C@H]1CCC(=O)N2c1ccccc1 | -15.1 |
| CCC(CC)n1ncc(C(=O)NS(=O)(=O)c2ccsc2)c1C | 21.2 |
| CN1CCC(N(C)C(=O)c2cnn(-c3cc(F)ccc3F)c2N)CC1 | -0.483 |
| CC(c1nc(C2CC2)no1)N(C)Cc1ccc(C#N)cc1 (configuration not stated) | -1.86 |
| NC(=O)N1CCCC1COC(=O)c1ccc(F)cc1Br (configuration not stated) | 12.5 |
| CC(NC(=O)NCc1ccccn1)c1ccc2c(c1)CCC(=O)N2 (configuration not stated) | -6.54 |
| CCN1CCN(C(=O)Cn2ncc3c2c(C)nn3C(C)C)CC1 | -4.28 |
| CC(C)CC(=O)N1CC[C@H]2N(C)CC[C@@]2(C(=O)Nc2cccnc2)CC1 | -9.05 |
| CCc1nc(C(=O)NCc2ccc(N3CCNC(=O)C3)c(F)c2)c[nH]1 | 5.08 |
| CC(C)n1[nH]c(=O)c2c1NC(=O)CC2c1cccc2cccnc12 (configuration not stated) | 15.8 |
| O=C(c1c[nH]c(=O)[nH]c1=O)N1CCCC(c2nccn2CC2CCC2)C1 (configuration not stated) | -24.3 |
| CCNc1cc2c(nn1)CCN(C(=O)CCc1c(C)noc1C)C2 | 18.9 |
| COc1ccc(CN2C[C@@H]3OCC(=O)N(Cc4nccn4C)[C@@H]3C2)cc1 | -3.1 |
| O=C(CN1CCOC1=O)N(Cc1ccccc1)Cc1nccs1 | -14.3 |
| O=C(c1cnco1)N1CCC(Cc2cccc3ncccc23)CC1 | 20.4 |
| CN(C)CC(=O)NC1CC(=O)N(CCc2ccccc2)C1 (configuration not stated) | -4.7 |

| Structure (SMILES) | cytotoxicity at 70.5 h [%] |
| --- | --- |
| CCc1noc(C(C)SCCS(C)(=O)=O)n1 (configuration not stated) | -7.13 |
| COc1ccc([C@@H]2C[C@H](NC(C)=O)C[C@H](CCc3ccccc3)O2)cn1 | -4.78 |
| CCCOC(=O)N1CCc2cccc(S(=O)(=O)N3CCOCC3)c2C1 | -8.66 |
| CCOC(=O)c1sc(NC(=O)COC)c(C#N)c1C | 28.6 |
| O=C(CCn1ncc2c(Cl)cccc21)NCC1CC1 | -5.33 |
| CC(c1ccccc1Cl)N1CCN(C(=O)c2ccc(=O)[nH]c2)CC1 (configuration not stated) | 2 |
| CN(C)C[C@H]1OC[C@@H]2CCN(C(=O)NCc3cccc(F)c3)C[C@@H]21 | -5.72 |
| CC(C)(C)NC(=O)CNc1ncccn1 | -8.78 |
| O=C(NC1CC1)[C@H]1C[C@H]2OCC[C@H]2N(Cc2cccnc2)C1 | -7.68 |
| O=C(C(CNCc1cccc(O)c1)c1ccccc1)N1CCOCC1 (configuration not stated) | -4.48 |
| CCCN1CC2(CCN(C)CC2)CC1C(=O)NCCn1cc(C)cn1 (configuration not stated) | -4.52 |
| COc1cc(Cl)cc(C(=O)N2CCC3(CCCNC3)C2)c1 (configuration not stated) | -5.79 |
| Cn1ncc(NCc2cc(F)cc(F)c2)c(Cl)c1=O | -7.18 |
| CCc1nnc2n1CCN(CC(=O)Nc1cc(C)nn1C)C2 | -4.31 |
| CCOC(=O)Cn1c(=O)nc2n1C(=O)N(c1ccccc1)C2 | 8.85 |
| CCOc1ccccc1C(=O)N1CCCC(O)(CN(C)C)C1 (configuration not stated) | 11.6 |
| CCOC(=O)CNC(=O)N1CCC(OC)c2ccccc2N(C)C(=O)C1 (configuration not stated) | -6.05 |
| COc1ccc2c(c1)c(C(=O)Nc1n[nH]c(C(C)C)n1)cn2C(C)C | 40.7 |
| Fc1cccc(NCc2ncc[nH]2)c1 | -8.15 |
| CN(C)S(=O)(=O)N1CCC(c2ccnc(Nc3ccccn3)n2)C1 (configuration not stated) | -0.703 |
| COc1cccc2c1OCC(CNC(=O)CNC(N)=O)C2 (configuration not stated) | -4.9 |
| Cc1cc(O)n2nc(C3CCN(C(=O)c4ccccn4)CC3)cc2n1 | 18.6 |
| CC(C)c1nnc2n1CCN(CCC(=O)N1CCc3ccccc31)C2 | -5.29 |

| Structure (SMILES) | cytotoxicity at 70.5 h [%] |
| --- | --- |
| O=C(c1ccc2c(c1)CCCC2)N1CCn2ncnc2C1 | 2.9 |
| CNc1cncc(C2CCCN2C(=O)c2ccc3nc(C)[nH]c3c2)n1 (configuration not stated) | -3.29 |
| c1ccc(Cc2nnc([C@H]3CCN(C4CCCCC4)C3)o2)cc1 | 1.09 |
| COc1ccccc1CNC(Cn1cncn1)c1ccccc1 (configuration not stated) | -2.53 |
| O=C(NCc1ccccc1Cn1cncn1)N1CCCC1 | -12.2 |
| Cc1nonc1CN(C)Cc1nc(-c2ccccc2Cl)oc1C | -7.91 |
| CCn1c(O)c(C(C)=O)c2cc(C)ccc21 | -6.19 |
| Cc1cccc(Nc2ccc(C3CCN(Cc4ncc[nH]4)CC3)nc2)n1 | 0.422 |
| CS(=O)(=O)c1cncnc1C1CCCNC1 (configuration not stated) | -8.78 |
| Cc1nccc(C2CN(Cc3ccc(-c4ccccc4C(=O)O)o3)C2)n1 | -2.56 |
| Cc1ccc2nc(C)cc(C(=O)N3C[C@H]4CCC[C@@]4(CO)C3)c2c1 | -6.32 |
| O=C(c1ccccn1)N1Cc2nccn2CC(COc2cccnc2)C1 (configuration not stated) | 22.8 |
| COc1ccccc1N1CCC(N2CCOC(C(F)(F)F)C2)CC1 (configuration not stated) | -3.26 |
| Cc1nc(C2CCCN(C(=O)c3cccc4c3OCCO4)C2)no1 (configuration not stated) | -1.54 |
| COc1ccc(CN2CCC(c3nccnc3-n3ccnc3)CC2)cc1 | -5.25 |
| CC(=O)N1CCC(CCc2ccnc(Nc3ccccn3)c2)CC1 | 26.8 |
| O=C([C@H]1C[C@H]2OCC[C@H]2N(Cc2ccccn2)C1)N1CCCCO1 | -9.44 |
| Cc1nn(C)c(N(C)C)c1CNCc1nnc2n1CCCCC2 | -6.41 |
| CCS(=O)(=O)N1CC[C@H]2O[C@@H](c3nnc(C)o3)CC[C@H]21 | -8.41 |
| CCC(CCNC(=O)c1cc(C2CC2)nc2c1cnn2C)n1cccn1 (configuration not stated) | -19.4 |
